Laboratory results from article PMC12691742, “Anti-Cancer Outcome of Glucocorticoid Receptor Transrepression by Synephrine Derivatives in Hematological Malignancies” (International Journal of Molecular Sciences, 2025).
Where two headings read alike, the source gives them in different places.

Key:
[1] = system: GR phosphorylated by Ser211 in K562 and Granta cells; assay: Western blot of nuclear phospho-GR (Ser211); type: cell-based; settings: 10 h; Dex 10 µM, 4S-C2 50 µM, 8S-E3 50 µM, 10S-E2 15 µM, 13S-G2 25 µM
Protocol: (§1) Figure 3 Effects of synephrine derivatives on GR transactivation in Granta lymphoma and K562 leukemia cells. (A) Q-PCR analysis of FKBP51, GILZ, and DDIT4 mRNA expression in K562 and Granta cells. […] The Q-PCR results were normalized to the expression of the housekeeping gene RPL27 and are presented as fold changes compared to the control. The mean ± SD was calculated for three individual samples/condition (n = 3). Statistically significant differences compared to the control: * p < 0.05, ** p < 0.01. (B) The levels of the nuclear fraction of phospho-GR (Ser211) were determined using Western blot analysis (n = 3; characteristic images are presented in the figure). Histone H3 was used as a loading control.
Western blot analysis was performed as previously described. Proteins were resolved using SDS-PAGE. Membranes were blocked with 5% nonfat milk solution and then incubated with primary antibodies against phosphorylated GR (pGR, Ser211) (“Santa Cruz Biotechnology”, Santa Cruz, CA, USA) overnight at 4 °C. To verify equal protein loading and adequate transfer, the membranes were probed with Histone H3 antibodies (“Cell Signaling”, Boston, MA, USA). Goat anti-rabbit IgGs (“Jackson Immuno Research”, West Grove, PA, USA) were used as secondary antibodies. Signals were detected using ECL reagent and an ImageQuant LAS4000 system (“GE HealthCare”, Chicago, IL, USA). ImageJ 1.54h software was used for densitometry. The experiments were performed in triplicate.
7 K562, pGR nuclear 5 Granta, pGR nuclear
Supplementary Figure S 22. Quantification of Western blot analysis. K562 and Granta cells […]
μM) and 13S-G2 (25 μ M) for 10 h. Quantification of Western blot anal ysis of p- GR protein levels was done usin g Im a ge J f ree so ftwar e. Statisticall y significant diff eren ces as compared to control: […]

[2] = system: NF-kB activity in Granta cells; assay: NF-kB.Luc reporter assay in Granta cells; type: cell-based; settings: 5 h, 4S-C2 10 µM, 10S-E2 1 µM
Protocol: (§2) We analyzed GR TR function using an NF-kB.Luc reporter assay with the irritating inflammatory agent phorbol 13-acetate 12-myristate (TPA) as an inducer of NF-kB signaling and positive control.
(§3) Figure 4 Effects of synephrine derivatives on GR transrepression in Granta lymphoma and K562 leukemia cells. (A) K562 and Granta cells stably infected with the lentiviruses bearing the NF-kB luciferase reporter. Cells were incubated for 5 h with the solvent (control), TPA (5 ng/mL), 4S-C2 (10 µM), 8S-E3 (10 µM), 10S-E2 (1 µM), or 13S-G2 (1 µM). Luciferase activity was determined as described in the Materials and Methods section. (B) IL1-α and IL6 mRNA expression in K562 and Granta cells. Q-PCR results were normalized to the expression of the housekeeping gene RPL27 and are presented as the fold change compared to the control. The mean ± SD was calculated for three individual samples/condition (n = 3). Statistically significant differences compared to the control: * p < 0.05, ** p < 0.01.
Lentiviral stocks were generated using the lentiviral expression vector NF-kB. Luc was encoded with Firefly Luciferase reporters with the NF-kB-responsive promoter of minimal CMV promoter as a control (“System Bioscience”, Moutain View, CA, USA), along with packing plasmids GAG, REV, and VSVg. HEK-293T cells were transfected with the abovementioned plasmids using TurboFect reagent (“Thermo Scientific”, Waltham, MA, USA) according to the manufacturer’s protocol. […] The infection efficiency exceeded 90% (tracked by GFP fluorescence).
(§4) Cells (10^4 cells/well in a 24-well plate), stably expressing Firefly Luciferase under the NF-kB promoter, were treated for 5 h with TPA (12-O-tetradecanoylphorbol-13-acetate, Boston, MA, USA, 10 ng/mL), 4S-C2 (10 µM), 8S-E3 (10 µM), 10S-E2 (1 µM), 13S-G2 (1 µM), or the vehicle. Luciferase activity was measured as described using a commercial Luciferase Assay (“Promega”, Madison, WI, USA) and Luminometer TD 20/20 (“Turner Design Instruments”, San Jose, CA, USA). […]

[3] = system: NF-kB activity in K562 cells; assay: NF-kB.Luc reporter assay in K562 cells; type: cell-based; settings: 5 h, 4S-C2 10 µM
Protocol: as §2
as §3, with “Q-PCR results were normalized to the expression of the housekeeping gene RPL27 and are presented as the fold change compared to the control.” left out, “Statistically significant differences compared to the control: * p < 0.05, ** p < 0.01.” left out
Lentiviral stocks were generated using the lentiviral expression vector NF-kB. […] The infection efficiency exceeded 90% (tracked by GFP fluorescence).
as §4

GR = biological target: T1, GR (Homo sapiens, UniProt P04150); assay: GR radioligand binding assay, competition with [3H]Dex in K562 cells
T1 construct: endogenous in cells; host or cells: K562
T1 sequence (P04150 1-777): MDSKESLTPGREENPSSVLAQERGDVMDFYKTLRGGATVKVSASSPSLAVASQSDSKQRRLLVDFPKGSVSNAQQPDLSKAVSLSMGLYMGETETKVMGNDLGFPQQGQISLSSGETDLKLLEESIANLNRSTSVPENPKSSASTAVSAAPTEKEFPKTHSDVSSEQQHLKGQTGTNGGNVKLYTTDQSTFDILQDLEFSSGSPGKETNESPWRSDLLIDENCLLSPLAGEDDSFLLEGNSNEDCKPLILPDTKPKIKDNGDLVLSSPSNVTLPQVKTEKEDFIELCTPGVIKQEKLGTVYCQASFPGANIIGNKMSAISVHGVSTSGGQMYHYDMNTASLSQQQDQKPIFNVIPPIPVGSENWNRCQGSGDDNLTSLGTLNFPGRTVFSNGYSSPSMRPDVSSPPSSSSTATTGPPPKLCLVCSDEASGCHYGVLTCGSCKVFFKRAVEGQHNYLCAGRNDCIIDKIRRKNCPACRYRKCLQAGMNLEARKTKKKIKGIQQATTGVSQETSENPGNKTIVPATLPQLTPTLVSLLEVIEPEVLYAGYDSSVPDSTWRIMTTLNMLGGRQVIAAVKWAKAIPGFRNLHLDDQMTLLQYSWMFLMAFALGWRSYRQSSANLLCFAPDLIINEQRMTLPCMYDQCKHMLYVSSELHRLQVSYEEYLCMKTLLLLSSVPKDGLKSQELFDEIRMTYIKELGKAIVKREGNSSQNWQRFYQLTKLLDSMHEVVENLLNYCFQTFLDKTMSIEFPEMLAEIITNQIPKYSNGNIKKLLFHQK
Protocol: (A,B). […] The stability of the complex was simulated using molecular dynamics in the GROMACS program. (C) GR binding affinity was estimated using a radioligand binding assay. […] Cell lysate radioactivity was measured using a RackBeta 1215 LC (LKB Wallac, Turku, Finland) spectrometer for 4 min. […] The experiments were performed in triplicate (n = 3).
After 90 min of incubation, the cells were washed twice by centrifugation in cold serum-free medium (1500 rpm, 5 min). The cells were then lysed with RIPA buffer (50 mM Tris (pH 8.0), 150 mM NaCl, 1 mM ethylenediaminetetraacetic acid, 0.1% sodium dodecyl sulfate, 0.5% sodium deoxycholate, 1% triton-X100, 10% glycerin, and protease inhibitor) for 20 min. Lysates were transferred to scintillation liquid, and radioactivity was measured using a RackBeta 1215 LC spectrometer for 4 min. […] IC50 was determined using GraphPad Prism software, Ver.7.0. […] “Top” meant the highest value in dpm and was equal to 100%, while the “bottom” was considered as the lowest value (0%). […] The IC50 values for each ligand were determined by plotting these curves. The experiments were performed in triplicate.

[4] = system: FKBP51, GILZ, DDIT4 mRNA expression in K562 and Granta cells; assay: Q-PCR of GR transactivation marker genes; type: cell-based; settings: 4 h (FKBP51, GILZ) or 24 h (DDIT4); Dex 10 µM, 10S-E2 0.1 µM; vs control
Source text: Q-PCR results were confirmed by Western blot analysis of the level of GR phosphorylated by Ser211, known as a crucial protein modification for GR TA realization because of its binding to short cysteine-rich fragments of the coactivator CREB-binding protein [41].
as §1
Total RNA isolation from cell cultures and murine bones, reverse transcription, and Q-PCR were performed as described in [36]. Primers were designed using NCBI Primer-BLAST https://www.ncbi.nlm.nih.gov/tools/primer-blast/, accessed on 25 August 2025 (Supplementary Table S1). Results were normalized to the expression of the housekeeping RPL27 и Rpl27 genes. The experiments were performed in triplicate.

[5] = system: leukemia and lymphoma cells (Granta, K562); set-up: method as in PMID 39858397; settings: leukemia and lymphoma cells; read-out: cell viability IC50; cited from earlier work

SMILES	GR phosphorylation level at Ser211 [1]	effect on NF-kB activity [2]	effect on NF-kB activity [3]	IC50 (GR) [µM]	expression of TA marker genes FKBP51, GILZ, DDIT4 [4]	IC50 [5] [µM]	IC50 (GR; K562 cells, 0.5 µM [3H]Dex, 90 min, n = 3) [µM]
CCCCCCNCC(O)c1ccc(OC)cc1 (stereo not drawn) [4S-C2, 2-(hexylamino)-1-(4-methoxyphenyl)ethanol]	weak increase	significantly decreased	induced it	3.21	–	–	–
CCCCCCNCC(O)c1ccc([N+](=O)[O-])cc1 (stereo not drawn) [13S-G2, 2-(hexylamino)-1-(4-nitrophenyl)ethanol]	weak increase	–	–	0.69	did not increase the expression	13 to 26	–
CNCC(Cl)c1ccc(OC(C)=O)cc1 (stereo not drawn) [CpdA, reference compound]	–	–	–	–	–	–	2.84
